Like-named read-outs stand apart in the source and are kept apart here.
Assay: Cytotoxicity Assay (HCT116, CellTiter-Glo)
Type: cell-based
Details: human
Experimental: HCT116 cells were seeded in 96 well plates (Greiner Bio-One, Monroe, N.C.) and allowed to settle overnight. Test compound dissolved in dimethyl sulfoxide (DMSO) was added and drug incubation proceeded for 72 hours. When applicable, a 1000× solution of nicotinic acid (NA; Sigma-Aldrich, St. Louis, Mo.) dissolved in water was generated, and 1×NA (10 μM final concentration) was added at the same time as the test compound. After 72 hour, 50 μL of CellTiter-Glo Luminescent Cell Viability Assay reagent (Promega Corporation, Madison, Wis.) was added to cells in 200 μL of cellular media. After a proscribed incubation period, luminescence was measured using a TopCount NXT plate reader (PerkinElmer, Waltham, Mass.).

[1] = HCT116 cells, 72 hours drug incubation, CellTiter-Glo luminescence, read-out: HCT116 cell cytotoxicity IC50

## O=C(NCc1cccnc1)Nc1ccc(-n2cc(CCN3CCC(F)(F)C3)c3ccccc32)cc1 [Compound 69, 1-(4-{3-[2-(3,3-Difluoropyrrolidin-1-yl)ethyl]-1H-indol-1-yl}phenyl)-3-(pyridin-3-ylmethyl) urea]
[1]
  IC50 at 72 h: < 100 nM

## O=C(NCc1cccnc1)Nc1ccc(-n2c(Cl)c(C(=O)N3CCN(C4CCCCC4)CC3)c3ccccc32)cc1 [Compound 70, 1-(4-{2-Chloro-3-[(4-cyclohexyl-piperazin-1-yl)carbonyl]-1H-indol-1-yl}phenyl)-3-(pyridin-3-ylmethyl)urea]
[1]
  IC50 at 72 h: < 100 nM

## C[C@H](O)C(=O)N1CCC2(CC1)CN(c1ccc(NC(=O)NCc3cccnc3)cc1)c1ccccc12 [Compound 71, 1-(4-{1′-[(2S)-2-Hydroxypropanoyl]spiro[indole-3,4′-piperidin]-1(2H)-yl}phenyl)-3-(pyridin-3-ylmethyl) urea]
[1]
  IC50 at 72 h: < 100 nM

## O=C(NCc1cccnc1)Nc1ccc(-n2cc(-c3nccn3CCN3CCCC3)c3ccccc32)cc1 [Compound 72, 1-(Pyridin-3-ylmethyl)-3-[4-(3-{1-[2-(pyrrolidin-1-yl)ethyl]-1H-imidazol-2-yl}-1H-indol-1-yl)phenyl] urea]
[1]
  IC50 at 72 h: < 100 nM

## Cc1c(-c2ccccc2)c(C(=O)N2CCC(N3CCCCC3)CC2)nn1-c1ccc(NC(=O)NCc2cccnc2)cc1 [Compound 73, 1-{4-[3-(1,4′-Bipiperidin-1′-ylcarbonyl)-5-methyl-4-phenyl-1H-pyrazol-1-yl]phenyl}-3-(pyridin-3-ylmethyl)urea]
[1]
  IC50 at 72 h: < 100 nM

## O=C(NCc1cccnc1)Nc1ccc(-n2nc(C(=O)N3CCC(N4CCCC4)CC3)cc2C2CC2)cc1 [Compound 74, 1-[4-(5-Cyclopropyl-3-{[4-(pyrrolidin-1-yl)piperidin-1-yl]carbonyl}-1H-pyrazol-1-yl)phenyl]-3-(pyridin-3-ylmethyl)urea]
HCT116 cell cytotoxicity IC50
  IC50 at 72 h: ≥ 100 nM

## O=C(NCc1cccnc1)Nc1ccc(-c2nn(CCN3CCCCC3)c3ccccc23)cc1 [Compound 75, 1-[4-[1-[2-(1-piperidyl)ethyl]indazol-3-yl]phenyl]-3-(3-pyridylmethyl)urea]
[1]
  IC50 at 72 h: < 100 nM

## CN(c1nn(-c2ccc(NC(=O)NCc3cccnc3)cc2)c2ccccc12)C1CCNC1 (stereo not shown) [Compound 76, 1-(4-{3-[Methyl (pyrrolidin-3-yl)amino]-1H-indazol-1-yl}phenyl)-3-(pyridin-3-ylmethyl)urea]
[1]
  IC50 at 72 h: < 100 nM

## Cc1c(C(=O)N2CCC(N3CCC(F)(F)CC3)CC2)c2ccccc2n1-c1ccc(NC(=O)NCc2cccnc2)cc1 [Compound 77, 1-(4-{3-[(4,4-Difluoro-1,4′-bipiperidin-1′-yl)carbonyl]-2-methyl-1H-indol-1-yl}phenyl)-3-(pyridin-3-ylmethyl)urea]
[1]
  IC50 at 72 h: < 100 nM

## CCOC(=O)c1c(C)n(-c2ccc(NC(=O)NCc3cccnc3)cc2)c2ccccc12 [Compound 79, Ethyl 2-methyl-1-(4-{[(pyridin-3-ylmethyl)carbamoyl]amino}phenyl)-1H-indole-3-carboxylate]
HCT116 cell cytotoxicity IC50
  IC50 at 72 h: ≥ 100 nM

## O=C(NCc1cccnc1)Nc1ccc(N2CC3(CCNCC3)c3ccccc32)cc1 [Compound 80, 1-(Pyridin-3-ylmethyl)-3-[4-(spiro[indole-3,4′-piperidin]-1(2H)-yl)phenyl]urea]
HCT116 cell cytotoxicity IC50
  IC50 at 72 h: < 100 nM

## Cc1c(Cc2ccc(F)cc2)c(C(=O)N2CCC(N3CCCCC3)CC2)nn1-c1ccc(NC(=O)NCc2cccnc2)cc1 [Compound 81, 1-{4-[3-(1,4′-Bipiperidin-1′-ylcarbonyl)-4-(4-fluorobenzyl)-5-methyl-1H-pyrazol-1-yl]phenyl}-3-(pyridin-3-ylmethyl)urea]
HCT116 cell cytotoxicity IC50
  IC50 at 72 h: ≥ 100 nM

## O=C(NCc1cccnc1)Nc1ccc(-n2cc(C3CCN(CC(F)(F)F)CC3)c3ccccc32)cc1 [Compound 82, 1-(Pyridin-3-ylmethyl)-3-(4-{3-[1-(2,2,2-trifluoroethyl)piperidin-4-yl]-1H-indol-1-yl}phenyl)urea]
HCT116 cell cytotoxicity IC50
  IC50 at 72 h: < 100 nM

## COC(=O)c1cn(Cc2ccccc2)c2cc(NC(=O)NCc3cccnc3)ccc12 [Compound 83, Methyl 1-benzyl-6-{[(pyridin-3-ylmethyl)carbamoyl]ami-no}-1H-indole-3-carboxylate]
[1]
  IC50 at 72 h: ≥ 100 nM

## O=C(NCc1cccnc1)Nc1ccc(-n2nc(CC(=O)N3CCCCC3)c3ccccc32)cc1 [Compound 84, 1-(4-{3-[2-Oxo-2-(piperidin-1-yl)ethyl]-1H-indazol-1-yl}phenyl)-3-(pyridin-3-ylmethyl)urea]
[1]
  IC50 at 72 h: < 100 nM

## COc1cccc(-c2cn(-c3ccc(NC(=O)NCc4cccnc4)cc3)nc2C(=O)N2CCC(N3CCCCC3)CC2)c1 [Compound 85, 1-{4-[3-(1,4′-Bipiperidin-1′-ylcarbonyl)-4-(3-methoxyphenyl)-1H-pyrazol-1-yl]phenyl}-3-(pyridin-3-ylmethyl)urea]
[1]
  IC50 at 72 h: < 100 nM

## O=C(NCc1cccnc1)Nc1ccc(-n2nc(N3CCN(C4CCCCC4)CC3)c3ccccc32)cc1 [Compound 86, 1-{4-[3-(4-Cyclo-hexylpiperazin-1-yl)-1H-indazol-1-yl]phenyl}-3-(pyridin-3-ylmethyl)urea]
[1]
  IC50 at 72 h: < 100 nM

## CC(C)(C)OC(=O)N1CCC(CCn2ccnc2-c2cn(-c3ccc(NC(=O)NCc4cccnc4)cc3)c3ccccc23)CC1 [Compound 87, tert-Butyl 4-(2-{2-[1-(4-{[(pyridin-3-yl-methyl)carbamoyl]amino}phenyl)-1H-indol-3-yl]-1H-imidazol-1-yl}ethyl)piperidine-1-carboxylate]
[1]
  IC50 at 72 h: < 100 nM

## O=C(NCc1cccnc1)Nc1ccc(-n2cc(C(=O)N3CCC(O)CC3)c3ccccc32)c(Cl)c1 [Compound 88, 1-(3-Chloro-4-{3-[(4-hydroxy-piperidin-1-yl)carbonyl]-1H-indol-1-yl}phenyl)-3-(pyridin-3-ylmethyl)urea]
HCT116 cell cytotoxicity IC50
  IC50 at 72 h: ≥ 100 nM

## O=C(NCCCCCCc1c[nH]c2ccccc12)NCc1cccnc1 [Compound 89, 1-[6-(1H-Indol-3-yl)hexyl]-3-(pyridin-3-ylmethyl)urea]
HCT116 cell cytotoxicity IC50
  IC50 at 72 h: ≥ 100 nM

## O=C(NCCCCC(=O)c1cn(C2CCNCC2)c2ccccc12)NCc1cccnc1 [Compound 90, 1-{5-Oxo-5-[1-(piperidin-4-yl)-1H-indol-3-yl]pentyl}-3-(pyridin-3-ylmethyl)urea]
[1]
  IC50 at 72 h: < 100 nM

## O=C(NCc1cccnc1)Nc1ccc(-c2nn(C3CNC3)c3ccccc23)cc1 [Compound 91, 1-{4-[1-(Azetidin-3-yl)-1H-indazol-3-yl]phenyl}-3-(pyridin-3-ylmethyl) urea]
[1]
  IC50 at 72 h: < 100 nM

## O=C(NCc1cccnc1)Nc1ccc(-n2cc(C(=O)N3CCN(C4CCCCC4)CC3)c3ccccc32)c(Cl)c1 [Compound 92, 1-(3-Chloro-4-{3-[(4-cyclohexyl-piperazin-1-yl)carbonyl]-1H-indol-1-yl}phenyl)-3-(pyridin-3-ylmethyl)urea]
[1]
  IC50 at 72 h: < 100 nM

## Cc1c(C(=O)N2CCN(C3CCC(F)(F)CC3)CC2)c2ccccc2n1-c1ccc(NC(=O)NCc2cccnc2)cc1 [Compound 93, 1-[4-(3-{[4-(4,4-Difluoro-cyclohexyl)pipe-razin-1-yl]carbonyl}-2-methyl-1H-indol-1-yl)phenyl]-3-(pyridin-3-ylmethyl)urea]
[1]
  IC50 at 72 h: < 100 nM

## O=C(NCc1cccnc1)Nc1ccc(-n2cc([C@H]3CC[C@@H](N4CC(F)(F)C4)CC3)c3ccccc32)cc1 [Compound 94, 1-[4-[3-[4-(3,3-difluoroazetidin-1-yl)cyclohexyl]indol-1-yl]phenyl]-3-(3-pyridylmethyl)urea]
[1]
  IC50 at 72 h: < 100 nM

## CCN1CCN(C(=O)c2cn(-c3ccc(NC(=O)NCc4cccnc4)cc3Cl)c3ccccc23)CC1 [Compound 95, 1-(3-Chloro-4-{3-[(4-ethylpiperazin-1-yl)carbonyl]-1H-indol-1-yl}phenyl)-3-(pyridin-3-ylmethyl)urea]
[1]
  IC50 at 72 h: < 100 nM

## O=C(NCc1cccnc1)Nc1ccc2c(c1)c(C(=O)NCCCN1CCCCC1)cn2Cc1ccccc1 [Compound 96, 1-Benzyl-N-[3-(piperidin-1-yl)propyl]-5-{[(pyridin-3-yl-methyl)carbamoyl]amino}-1H-indole-3-carboxamide]
[1]
  IC50 at 72 h: ≥ 100 nM

## O=C(NCCCCCCC1CNc2ccccc21)NCc1cccnc1 (stereo not shown) [Compound 97, 1-[6-(2,3-Dihydro-1H-indol-3-yl)hexyl]-3-(pyridin-3-ylmethyl)urea]
[1]
  IC50 at 72 h: < 100 nM

## O=C(NCc1cccnc1)Nc1ccc(-n2nc(N3CCNCC3)c3ccccc32)cc1 [Compound 98, 1-{4-[3-(Piperazin-1-yl)-1H-indazol-1-yl]phenyl}-3-(pyridin-3-ylmethyl)urea]
[1]
  IC50 at 72 h: < 100 nM

## O=C(NCc1cccnc1)Nc1ccc(-n2cc(C3CCN(CCF)CC3)c3ccccc32)cc1 [Compound 99, 1-(4-{3-[1-(2-Fluoroethyl)piperidin-4-yl]-1H-indol-1-yl}phenyl)-3-(pyridin-3-ylmethyl)urea]
[1]
  IC50 at 72 h: < 100 nM

## O=C(NCc1cccnc1)Nc1ccc(-n2cc(CCN3CCOCC3)c3ccccc32)cc1 [Compound 100, 1-(4-{3-[2-(Morpholin-4-yl)ethyl]-1H-indol-1-yl}phenyl)-3-(pyridin-3-ylmethyl)urea]
[1]
  IC50 at 72 h: < 100 nM

## CN1CCN(C(=O)Cc2cn(-c3ccc(NC(=O)NCc4cccnc4)cc3)c3ccccc23)CC1 [Compound 101, 1-(4-{3-[2-(4-Methylpiperazin-1-yl)-2-oxoethyl]-1H-indol-1-yl}phenyl)-3-(pyridin-3-ylmethyl)urea]
[1]
  IC50 at 72 h: < 100 nM

## O=C(NCc1cccnc1)Nc1ccc(-n2cc(-c3nccn3CCN3CCOCC3)c3ccccc32)cc1 [Compound 102, 1-[4-(3-{1-[2-(Morpholin-4-yl)ethyl]-1H-imidazol-2-yl}-1H-indol-1-yl)phenyl]-3-(pyridin-3-ylmethyl)urea]
[1]
  IC50 at 72 h: < 100 nM

## O=C(NCc1cncc(F)c1)Nc1ccc(-n2cc(CCN3CCOCC3)c3ccccc32)cc1 [Compound 103, 1-[(5-Fluoro-pyridin-3-yl)methyl]-3-(4-{3-[2-(morpholin-4-yl)ethyl]-1H-indol-1-yl}phenyl)urea]
[1]
  IC50 at 72 h: < 100 nM

— patent publication US20140349989A1, “COMPOUNDS AND THERAPEUTIC USES THEREOF” (Alzheimer's Institute of America, priority 2011, published 2014)
